# Laboratory results taken from patent EP4745135A1 (Gluetacs Therapeutics (Shanghai) Co., Ltd., priority 2023, dated 2025).
# Assays:
# GSPT1 = experiment: Western blot, degradation of substrate protein in hPBMCs; format: cell-based, Human
# Protocol: (§1) Conventional Western blot assay was performed to evaluate the effects of the compounds of the present disclosure on the expression of target proteins in cells. • (1) Cell Seeding and Protein Harvesting: Human peripheral blood mononuclear cells (hPBMCs) at a density of 1×10^6 cells/mL were thawed according to the PBMC Recovery Protocol (Milecell Biotechnologies Inc, Shanghai). […] After 24 hours of compounds treatment, cells were harvested and lysed in RIPA protein lysate containing protease inhibitors on ice for 30 min, followed by centrifugation. The supernatant was aspirated as the extracted total cell protein. The protein concentration of the supernatant was determined using the conventional BCA (Bicinchoninic Acid) assay. • (2) To the collected supernatant, 5X SDS sample loading buffer was added, followed by denaturation at 95°C for 5 minutes. The denatured samples were then separated by SDS-PAGE electrophoresis on a polyacrylamide gel, transferred onto a nitrocellulose membrane (0.45 µm NC membrane), blocked with blocking buffer at room temperature for 1 hour, and subjected to antibody incubation and development procedures according to the antibody manufacturer's instructions (Cell Signaling Technology Company).
# (§2) Half-Maximal Degradation Concentration value (the drug concentration required for degrading proteins by 50%, abbreviated as DC50) reads method: comparing the grayscale values of Western blot bands from drug-treated samples with those from blank DMSO-treated controls, and identifying the drug concentration range at which the grayscale value is half that of the DMSO-treated control bands.
# (§3) DC50 values can be calculated using ImageJ software to measure grayscale values of Western blot bands from drug-treated samples. The concentration-response curve is fitted to estimate the drug concentration corresponding to half the grayscale value.
# (§4) Target protein remaining (%) refers to the percentage of target protein remaining in cells after treatment with protein degrader compounds.
# (§5) Calculation method for target protein remaining (%): Use ImageJ software to measure grayscale values of Western blot bands from drug (protein degrader)-treated samples. The grayscale value of drug-treated bands is divided by that of internal control protein bands, and the resulting quotient is normalized to obtain the relative percentage of remaining target protein after protein degrader treatment.
# (§6) Target protein degradation rate (%) = 1−target protein remaining (%). [formula]
# WEE1 = biological target: T1, WEE1 (Homo sapiens, UniProt P30291+Q96SW2); experiment: as above; format: cell-based
# T1 construct: effects of the compounds of the present disclosure on the expression of target proteins in cells; endogenous in cells; host or cells: human PBMCs (Milecell Biotechnologies)
# T1 sequence (P30291 whole entry): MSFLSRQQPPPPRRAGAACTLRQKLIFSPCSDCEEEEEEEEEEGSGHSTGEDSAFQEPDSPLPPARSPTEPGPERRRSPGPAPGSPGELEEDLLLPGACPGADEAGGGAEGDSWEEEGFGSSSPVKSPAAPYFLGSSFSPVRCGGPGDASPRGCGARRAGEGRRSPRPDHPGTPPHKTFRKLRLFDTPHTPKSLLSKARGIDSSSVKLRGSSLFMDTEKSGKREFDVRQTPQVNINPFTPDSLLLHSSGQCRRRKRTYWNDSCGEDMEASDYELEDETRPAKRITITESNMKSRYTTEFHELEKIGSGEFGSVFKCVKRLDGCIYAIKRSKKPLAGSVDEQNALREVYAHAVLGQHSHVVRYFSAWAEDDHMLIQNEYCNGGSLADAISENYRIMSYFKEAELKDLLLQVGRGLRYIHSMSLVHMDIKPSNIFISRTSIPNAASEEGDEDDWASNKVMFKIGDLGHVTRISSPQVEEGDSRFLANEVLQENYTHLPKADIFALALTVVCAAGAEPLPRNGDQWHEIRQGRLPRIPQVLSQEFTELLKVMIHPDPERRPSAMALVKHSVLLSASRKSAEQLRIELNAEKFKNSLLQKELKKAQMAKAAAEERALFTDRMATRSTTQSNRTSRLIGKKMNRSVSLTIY
# T1 sequence (Q96SW2 whole entry): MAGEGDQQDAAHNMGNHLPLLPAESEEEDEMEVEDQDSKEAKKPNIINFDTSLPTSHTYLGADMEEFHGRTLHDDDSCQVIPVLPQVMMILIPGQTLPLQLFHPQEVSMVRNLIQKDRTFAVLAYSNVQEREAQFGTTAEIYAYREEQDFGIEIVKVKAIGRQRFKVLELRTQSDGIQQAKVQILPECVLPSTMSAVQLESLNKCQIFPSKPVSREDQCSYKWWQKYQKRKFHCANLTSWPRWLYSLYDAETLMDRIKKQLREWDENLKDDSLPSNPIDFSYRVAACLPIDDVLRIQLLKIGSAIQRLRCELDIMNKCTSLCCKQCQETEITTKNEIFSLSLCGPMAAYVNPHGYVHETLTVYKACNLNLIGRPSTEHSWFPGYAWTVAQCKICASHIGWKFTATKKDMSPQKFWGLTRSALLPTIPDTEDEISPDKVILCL
# T1 sequence (Q16531 whole entry partner): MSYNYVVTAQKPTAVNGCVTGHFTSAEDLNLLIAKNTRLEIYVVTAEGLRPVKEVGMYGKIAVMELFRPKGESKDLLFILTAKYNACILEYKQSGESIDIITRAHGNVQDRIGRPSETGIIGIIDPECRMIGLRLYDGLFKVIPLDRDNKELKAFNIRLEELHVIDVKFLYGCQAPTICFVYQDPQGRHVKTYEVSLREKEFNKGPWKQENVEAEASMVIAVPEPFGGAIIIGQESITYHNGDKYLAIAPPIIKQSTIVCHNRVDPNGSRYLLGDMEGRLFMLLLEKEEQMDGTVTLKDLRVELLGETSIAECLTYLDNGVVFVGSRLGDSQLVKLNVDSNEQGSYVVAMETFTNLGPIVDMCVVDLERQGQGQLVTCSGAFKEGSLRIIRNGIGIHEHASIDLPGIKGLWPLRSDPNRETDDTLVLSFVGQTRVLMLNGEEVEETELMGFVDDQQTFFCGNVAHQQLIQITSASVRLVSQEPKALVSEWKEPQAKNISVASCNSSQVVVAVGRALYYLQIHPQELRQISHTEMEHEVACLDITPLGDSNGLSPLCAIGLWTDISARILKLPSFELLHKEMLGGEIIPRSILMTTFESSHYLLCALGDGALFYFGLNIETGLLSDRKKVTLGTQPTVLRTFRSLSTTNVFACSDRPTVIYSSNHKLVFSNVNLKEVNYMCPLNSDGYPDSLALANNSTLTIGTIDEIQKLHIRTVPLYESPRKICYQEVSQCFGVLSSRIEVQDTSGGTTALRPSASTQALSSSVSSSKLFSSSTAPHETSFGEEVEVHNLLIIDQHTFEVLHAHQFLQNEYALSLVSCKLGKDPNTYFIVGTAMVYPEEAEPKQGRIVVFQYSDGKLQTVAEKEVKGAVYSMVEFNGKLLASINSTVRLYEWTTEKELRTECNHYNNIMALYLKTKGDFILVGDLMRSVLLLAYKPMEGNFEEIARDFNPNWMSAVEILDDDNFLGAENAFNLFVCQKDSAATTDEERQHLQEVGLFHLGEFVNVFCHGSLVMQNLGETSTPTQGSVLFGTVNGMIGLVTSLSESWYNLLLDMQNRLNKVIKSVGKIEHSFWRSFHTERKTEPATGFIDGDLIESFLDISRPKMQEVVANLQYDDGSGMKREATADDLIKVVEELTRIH
# Protocol: as §1, §2, §3, §4, §5, §6
# IKZF2 = biological target: T2, IKZF2 (Homo sapiens, UniProt Q96SW2+Q9UKS7); experiment: as above; format: cell-based
# T2 construct: effects of the compounds of the present disclosure on the expression of target proteins in cells; endogenous in cells; host or cells: human PBMCs (Milecell Biotechnologies)
# T2 sequence (Q9UKS7 whole entry): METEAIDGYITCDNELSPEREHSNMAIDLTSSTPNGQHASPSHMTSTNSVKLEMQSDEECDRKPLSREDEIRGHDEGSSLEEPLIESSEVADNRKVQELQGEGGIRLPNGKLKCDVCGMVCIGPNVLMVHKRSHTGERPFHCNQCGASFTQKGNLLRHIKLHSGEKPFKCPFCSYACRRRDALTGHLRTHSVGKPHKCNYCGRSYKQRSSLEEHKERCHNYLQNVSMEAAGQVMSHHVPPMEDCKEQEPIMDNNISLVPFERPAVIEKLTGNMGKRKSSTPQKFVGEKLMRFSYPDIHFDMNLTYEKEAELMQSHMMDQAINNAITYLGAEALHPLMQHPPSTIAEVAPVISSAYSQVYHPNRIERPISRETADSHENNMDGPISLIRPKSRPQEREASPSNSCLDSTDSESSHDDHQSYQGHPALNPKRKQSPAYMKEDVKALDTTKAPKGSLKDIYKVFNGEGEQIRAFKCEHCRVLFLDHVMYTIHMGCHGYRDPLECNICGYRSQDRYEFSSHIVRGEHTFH
# T2 sequence (Q96SW2 whole entry): as the sequence (Q96SW2 whole entry) above
# T2 sequence (Q16531 whole entry partner): as the sequence (Q16531 whole entry partner) above
# Protocol: as §1, §2, §3, §4, §5, §6
# IKZF3 = biological target: T3, IKZF3 (Homo sapiens, UniProt Q96SW2+Q9UKT9); experiment: as above; format: cell-based
# T3 construct: effects of the compounds of the present disclosure on the expression of target proteins in cells; endogenous in cells; host or cells: human PBMCs (Milecell Biotechnologies)
# T3 sequence (Q9UKT9 whole entry): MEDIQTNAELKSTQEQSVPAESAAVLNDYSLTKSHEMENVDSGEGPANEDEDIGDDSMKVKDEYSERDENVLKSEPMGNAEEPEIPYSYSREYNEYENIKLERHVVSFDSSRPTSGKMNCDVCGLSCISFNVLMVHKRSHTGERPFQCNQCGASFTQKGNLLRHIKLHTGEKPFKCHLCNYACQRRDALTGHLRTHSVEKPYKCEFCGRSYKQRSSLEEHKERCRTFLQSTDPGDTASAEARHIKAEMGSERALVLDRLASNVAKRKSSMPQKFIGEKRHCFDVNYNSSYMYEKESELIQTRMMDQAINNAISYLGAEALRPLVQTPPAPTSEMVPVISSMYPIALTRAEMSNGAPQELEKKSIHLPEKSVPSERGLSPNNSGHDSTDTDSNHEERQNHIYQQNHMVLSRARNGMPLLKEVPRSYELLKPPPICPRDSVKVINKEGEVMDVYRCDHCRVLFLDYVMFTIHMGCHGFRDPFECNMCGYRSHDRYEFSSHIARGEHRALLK
# T3 sequence (Q96SW2 whole entry): as the sequence (Q96SW2 whole entry) above
# T3 sequence (Q16531 whole entry partner): as the sequence (Q16531 whole entry partner) above
# Protocol: as §1, §2, §3, §4, §5, §6
# IKZF1 = biological target: T4, IKZF1 (Homo sapiens, UniProt Q13422+Q96SW2); experiment: as above; format: cell-based
# T4 construct: effects of the compounds of the present disclosure on the expression of target proteins in cells; endogenous in cells; host or cells: human PBMCs (Milecell Biotechnologies)
# T4 sequence (Q13422 whole entry): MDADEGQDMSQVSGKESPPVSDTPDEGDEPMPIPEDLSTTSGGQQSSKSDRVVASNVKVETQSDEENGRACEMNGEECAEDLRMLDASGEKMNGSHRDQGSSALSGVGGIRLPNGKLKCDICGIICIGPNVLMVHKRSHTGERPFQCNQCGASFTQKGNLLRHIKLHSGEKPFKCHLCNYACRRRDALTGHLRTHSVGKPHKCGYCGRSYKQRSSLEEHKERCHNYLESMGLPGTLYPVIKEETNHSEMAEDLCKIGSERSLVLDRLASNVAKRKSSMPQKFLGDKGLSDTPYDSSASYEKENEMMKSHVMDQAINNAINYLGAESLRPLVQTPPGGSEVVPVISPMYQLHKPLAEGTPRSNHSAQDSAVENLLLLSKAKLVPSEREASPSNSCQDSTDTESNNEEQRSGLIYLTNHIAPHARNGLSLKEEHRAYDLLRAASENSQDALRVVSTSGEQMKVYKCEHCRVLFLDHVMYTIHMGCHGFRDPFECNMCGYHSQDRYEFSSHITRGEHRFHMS
# T4 sequence (Q96SW2 whole entry): as the sequence (Q96SW2 whole entry) above
# T4 sequence (Q16531 whole entry partner): as the sequence (Q16531 whole entry partner) above
# Protocol: as §1, §2, §3, §4, §5, §6
# CK1α = biological target: T5, CK1α (Homo sapiens, UniProt P48729+Q96SW2); experiment: as above; format: cell-based
# T5 construct: effects of the compounds of the present disclosure on the expression of target proteins in cells; endogenous in cells; host or cells: human PBMCs (Milecell Biotechnologies)
# T5 sequence (P48729 whole entry): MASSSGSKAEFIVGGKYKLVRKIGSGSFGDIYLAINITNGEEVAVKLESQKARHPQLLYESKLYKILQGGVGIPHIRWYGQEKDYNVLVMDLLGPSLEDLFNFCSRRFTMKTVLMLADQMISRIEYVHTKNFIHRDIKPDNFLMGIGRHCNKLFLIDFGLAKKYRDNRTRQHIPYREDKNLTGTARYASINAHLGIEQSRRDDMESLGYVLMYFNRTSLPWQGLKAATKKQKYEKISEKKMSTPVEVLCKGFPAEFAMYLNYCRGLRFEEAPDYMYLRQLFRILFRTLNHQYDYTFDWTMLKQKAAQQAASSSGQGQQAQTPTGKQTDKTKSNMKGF
# T5 sequence (Q96SW2 whole entry): as the sequence (Q96SW2 whole entry) above
# T5 sequence (Q16531 whole entry partner): as the sequence (Q16531 whole entry partner) above
# Protocol: as §1, §2, §3, §4, §5, §6
# [1] = biological target: T6, human Cereblon WT GST-tagged protein (Homo sapiens, UniProt Q96SW2); experiment: CRBN-binding affinity, HTRF (CEREBLON BINDING kit); settings: for inhibition at 0.5 µM: read-out: Inhibition Rate at 0.5 µM (%); for inhibition at 2 µM: read-out: Inhibition Rate at 2 µM (%)
# T6 construct: purchased CISBIO 64BDCRBNPEH
# T6 sequence (Q96SW2 whole entry): as the sequence (Q96SW2 whole entry) above
# [2] = Western blot, 24 hours of compound treatment, compounds tested at 50 nM and 500 nM (concentration for the table not stated)
# [3] = 24 hours treatment, compounds at 50 nM and 500 nM (concentration behind the class not stated)
Compound,GSPT1 substrate protein remaining % (GSPT1; [2]),Wee1 substrate protein remaining % (WEE1; [2]),IKZF2 substrate protein remaining % (IKZF2; [2]),IKZF3 substrate protein remaining % (IKZF3; [2]),IKZF 1 substrate protein remaining % (IKZF1; [2]),CK1α substrate protein remaining % (CK1α; [2]),inhibition at 0.5 µM [1] [%],inhibition at 2 µM [1] [%],GSPT1 substrate protein remaining % (GSPT1; [3]),Wee1 substrate protein remaining % (WEE1; [3]),IKZF2 substrate protein remaining % (IKZF2; [3]),IKZF3 substrate protein remaining % (IKZF3; [3]),IKZF 1 substrate protein remaining % (IKZF1; [3]),CK1α substrate protein remaining % (CK1α; [3])
"Cc1ccc(N2CCN(Cc3cccc4c3CN(C3CCC(=O)NC3=O)C4=S)CC2)cc1 (centres unmarked) [GT-08499, 3-(1-thioxo-4-((4-(p-tolyl)piperazin-1-yl)methyl)isoindolin-2-yl)piperidine-2,6-dione]",A (0% ≤ substrate protein remaining % ≤ 80%),A (0% ≤ substrate protein remaining % ≤ 80%),A (0% ≤ substrate protein remaining % ≤ 80%),B (80%< substrate protein remaining %≤ 100%),B (80%< substrate protein remaining %≤ 100%),B (80%< substrate protein remaining %≤ 100%),30 to 40,53 to 60,–,–,–,–,–,–
"O=C1CCC(N2Cc3cc(CN4CC=C(c5ccnc(F)c5F)CC4)ccc3C2=S)C(=O)N1 (centres unmarked) [GT-08474, 3-(5-((2',3'-difluoro-3,6-dihydro-[4,4'-bipyridin]-1(2H)-yl)methyl)-1-thioxoisoindolin-2-yl)piperidine-2,6-dione]",A (0% ≤ substrate protein remaining % ≤ 80%),B (80%< substrate protein remaining %≤ 100%),B (80%< substrate protein remaining %≤ 100%),B (80%< substrate protein remaining %≤ 100%),B (80%< substrate protein remaining %≤ 100%),B (80%< substrate protein remaining %≤ 100%),80 to 100,80 to 100,–,–,–,–,–,–
"O=C1CCC(N2Cc3cc(CN4CCN(c5ccc(F)cc5F)CC4)ccc3C2=S)C(=O)N1 (centres unmarked) [GT-08613, 3-(5-((4-(2,4-difluorophenyl)piperazin-1-yl)methyl)-1-thioxoisoindolin-2-yl)piperidine-2,6-dione]",A (0% ≤ substrate protein remaining % ≤ 80%),B (80%< substrate protein remaining %≤ 100%),B (80%< substrate protein remaining %≤ 100%),B (80%< substrate protein remaining %≤ 100%),B (80%< substrate protein remaining %≤ 100%),B (80%< substrate protein remaining %≤ 100%),60 to 80,80 to 100,–,–,–,–,–,–
"O=C1CCC(N2Cc3c(CN4CCN(c5ncc(C(F)(F)F)cc5Cl)CC4)cccc3C2=S)C(=O)N1 (centres unmarked) [GT-08705, 3-(4-((4-(3-chloro-5-(trifluoromethyl)pyridin-2-yl)piperazin-1-yl)methyl)-1-thioxoisoindolin-2-yl)piperidine-2,6-dione]",B (80%< substrate protein remaining %≤ 100%),A (0% ≤ substrate protein remaining % ≤ 80%),B (80%< substrate protein remaining %≤ 100%),B (80%< substrate protein remaining %≤ 100%),B (80%< substrate protein remaining %≤ 100%),B (80%< substrate protein remaining %≤ 100%),30 to 40,60 to 80,–,–,–,–,–,–
"O=C1CCC(N2Cc3cc(CN4CCN(c5ccnc(Br)c5F)CC4)ccc3C2=S)C(=O)N1 (centres unmarked) [GT-09241, 3-(5-((4-(2-bromo-3-fluoropyridin-4-yl)piperazin-1-yl)methyl)-1-thioxoisoindolin-2-yl)piperidine-2,6-dione]",–,–,–,–,–,–,60 to 80,80 to 100,A (0% ≤ substrate protein remaining % ≤ 80%),B (80%< substrate protein remaining %≤ 100%),B (80%< substrate protein remaining %≤ 100%),B (80%< substrate protein remaining %≤ 100%),B (80%< substrate protein remaining %≤ 100%),B (80%< substrate protein remaining %≤ 100%)
"O=C1CCC(N2Cc3c(CN4CCN(c5nc(N6CCOCC6)nc6ccsc56)CC4)cccc3C2=S)C(=O)N1 (centres unmarked) [GT-09032, 3-(4-((4-(2-morpholinothieno[3,2-d]pyrimidin-4-yl)piperazin-1-yl)methyl)-1-thioxoisoindolin-2-yl)piperidine-2,6-dione]",–,–,–,–,–,–,40 to 53,80 to 100,B (80%< substrate protein remaining %≤ 100%),A (0% ≤ substrate protein remaining % ≤ 80%),B (80%< substrate protein remaining %≤ 100%),B (80%< substrate protein remaining %≤ 100%),B (80%< substrate protein remaining %≤ 100%),B (80%< substrate protein remaining %≤ 100%)
"O=C1CCC(N2Cc3c(CN4CCN(c5ncccc5F)CC4)cccc3C2=S)C(=O)N1 (centres unmarked) [GT-08697, 3-(4-((4-(3-fluoropyridin-2-yl)piperazin-1-yl)methyl)-1-thioxoisoindolin-2-yl)piperidine-2,6-dione]",B (80%< substrate protein remaining %≤ 100%),A (0% ≤ substrate protein remaining % ≤ 80%),B (80%< substrate protein remaining %≤ 100%),B (80%< substrate protein remaining %≤ 100%),B (80%< substrate protein remaining %≤ 100%),B (80%< substrate protein remaining %≤ 100%),60 to 80,80 to 100,–,–,–,–,–,–
"O=C1CCC(N2Cc3c(CN4CCN(c5ccccc5Br)CC4)cccc3C2=S)C(=O)N1 (centres unmarked) [GT-08267, 3-(4-((4-(2-bromophenyl)piperazin-1-yl)methyl)-1-thioxoisoindolin-2-yl)piperidine-2,6-dione]",A (0% ≤ substrate protein remaining % ≤ 80%),A (0% ≤ substrate protein remaining % ≤ 80%),B (80%< substrate protein remaining %≤ 100%),B (80%< substrate protein remaining %≤ 100%),B (80%< substrate protein remaining %≤ 100%),B (80%< substrate protein remaining %≤ 100%),–,–,–,–,–,–,–,–
"O=C1CCC(N2Cc3c(CN4CCC(c5nccc(Cl)c5Cl)CC4)cccc3C2=S)C(=O)N1 (centres unmarked) [GT-08457, 3-(4-((4-(3,4-dichloropyridin-2-yl)piperidin-1-yl)methyl)-1-thioxoisoindolin-2-yl)piperidine-2,6-dione]",B (80%< substrate protein remaining %≤ 100%),A (0% ≤ substrate protein remaining % ≤ 80%),B (80%< substrate protein remaining %≤ 100%),B (80%< substrate protein remaining %≤ 100%),B (80%< substrate protein remaining %≤ 100%),B (80%< substrate protein remaining %≤ 100%),–,–,–,–,–,–,–,–
"O=C1CCC(N2Cc3c(CN4CCN(c5cccc(Cl)c5Cl)CC4)cccc3C2=S)C(=O)N1 (centres unmarked) [GT-08258, 3-(4-((4-(2,3-dichlorophenyl)piperazin-1-yl)methyl)-1-thioxoisoindolin-2-yl)piperidine-2,6-dione]",A (0% ≤ substrate protein remaining % ≤ 80%),A (0% ≤ substrate protein remaining % ≤ 80%),B (80%< substrate protein remaining %≤ 100%),B (80%< substrate protein remaining %≤ 100%),B (80%< substrate protein remaining %≤ 100%),B (80%< substrate protein remaining %≤ 100%),–,–,–,–,–,–,–,–
